Assay results: patent publication US20260256792A1, “TREATMENT OF CHRONIC SPONTANEOUS URTICARIA BY ADMINISTERING (R)-2-[3-[4-AMINO-3-(2-FLUORO-4-PHENOXY-PHENYL)PYRAZOLO[3,4-D]PYRIMIDIN-1-YL]PIPERIDINE-1-CARBONYL]-4-METHYL-4-[4-(OXETAN-3-YL)PIPERAZIN-1-YL]PENT-2-ENENITRILE” (priority 2023, published 2026)

Tested on: moderate-to-severe chronic spontaneous urticaria (CSU)
Assay: Phase 2 CSU study: urticaria activity score over 7 days (UAS7)
Assay type: in vivo, human
Set-up: key to UAS7 Median / UAS7 Change from baseline Median / UAS7 change from baseline, Q1 / UAS7 change from baseline, Q3 / UAS7 change from baseline, Max / UAS7 Change from baseline LS Mean (SE): UAS7 points; daily UAS score ranges 0–6 points/day, over 7 days
Excerpt: The study comprises a 12 week, randomized, double-blind, placebo-controlled, multi-center, dose-ranging efficacy and safety phase, followed by a 40 week open label extension (OLE) phase (see FIG. 1). The study consists of three phases and an optional OLE phase. […] Clinically, CSU is characterized by the spontaneous and recurrent appearance of pruritic hives. The proposed primary endpoints were the UAS7 at Week 12 in EU and EU reference countries and the ISS7 in the US. Regardless of where a participant was from, all assessments were the same. The UAS7 score is a composite score containing both the HSS7 and the ISS7. This allowed a global assessment of the two key components of urticaria: hives and itch. […] The UAS is a validated PRO measure. […] The daily UAS scores range from 0 to 6 point/day. […] Patients were to complete the UAS using the e-diary. […] The following secondary endpoints were to be analyzed using the same approach as for the primary endpoint: • Change from baseline in UAS7 at Week 4 • Change from baseline in UAS7 at Week 12 (for US and US reference countries) • Change from baseline in ISS7 at Week 12 (except US and US reference countries) • Change from baseline in HSS7 at Week 12 The following responder secondary endpoints were to be analyzed using the Cochran-Mantel-Haenszel test adjusted by region: • Proportion of participants with UAS7<6 at Week 12 • Proportion of participants with UAS7=0 at Week 12 Participants who received selected prohibited medications and/or rescue medications were to be considered as non-responders for time points after the medication usage. For other participants, all available data including those collected during the off-treatment period were to be used to determine the responder/non-responder status. Missing data were to be considered as non-responders.

[1] = Week 4, 400 mg TID, omalizumab-naive participants
[2] = Week 5, 400 mg BID, ITT population
[3] = Week 5, 400 mg BID, Omalizumab-Naïve
[4] = Week 5, 400 mg BID, Prior Omalizumab Use
[5] = Week 5, 400 mg BID, omalizumab-naive participants
[6] = Week 5, 400 mg QPM, ITT population
[7] = Week 5, 400 mg QPM, Omalizumab-Naïve
[8] = Week 5, 400 mg QPM, Prior Omalizumab Use
[9] = Week 5, 400 mg QPM, omalizumab-naive participants
[10] = Week 5, 400 mg TID, ITT population
[11] = Week 5, 400 mg TID, Omalizumab-Naïve
[12] = Week 5, 400 mg TID, Prior Omalizumab Use
[13] = Week 5, 400 mg TID, omalizumab-naive participants

CC(C)(C=C(C#N)C(=O)N1CCC[C@@H](n2nc(-c3ccc(Oc4ccccc4)cc3F)c3c(N)ncnc32)C1)N1CCN(C2COC2)CC1 [rilzabrutinib, (R)-2-[3-[4-amino-3-(2-fluoro-4-phenoxy-phenyl)pyrazolo[3,4-d]pyrimidin-1-yl]piperidine-1-carbonyl]-4-methyl-4-[4-(oxetan-3-yl)piperazin-1-yl]pent-2-enenitrile]
UAS7 Percent change from baseline Median (Week 4, 400 mg TID, Prior Omalizumab Use): −68.48% | Non-responder, UAS7 reduction from baseline of 10 points or more [1]: 11 (31.4) n (%) | OR for rilzabrutinib vs. placebo, UAS7 reduction of 10 points or more [1]: 3.855 | RRD (%) for rilzabrutinib vs. placebo, UAS7 reduction of 10 points or more [1]: 31.2 % | Responder, UAS7 reduction from baseline of 10 points or more [1]: 24 (68.6) n (%) | Non-responder, UAS7 reduction from baseline of 10 points or more [2]: 19 (46.3) n (%) | OR for rilzabrutinib vs. placebo, UAS7 reduction of 10 points or more [2]: 1.238 | RRD (%) for rilzabrutinib vs. placebo, UAS7 reduction of 10 points or more [2]: 5.2 % | Responder, UAS7 reduction from baseline of 10 points or more [2]: 22 (53.7) n (%) | UAS7 Change from baseline Mean (SD) [3]: −12.56 (11.55) | UAS7 Change from baseline Median [3]: −12.67 | UAS7 Mean (SD) [3]: 17.22 (13.36) | UAS7 Median [3]: 16.50 | UAS7 Percent change from baseline Mean (SD) [3]: −44.07 (39.75) % | UAS7 Percent change from baseline Median [3]: −40.89% | UAS7 Change from baseline Mean (SD) [4]: −25.00 (18.42) | UAS7 Change from baseline Median [4]: −29.00 | UAS7 Mean (SD) [4]: 9.75 (16.94) | UAS7 Median [4]: 2.00 | UAS7 Percent change from baseline Mean (SD) [4]: −71.30 (48.04) % | UAS7 Percent change from baseline Median [4]: −92.59% | Non-responder, UAS7 reduction from baseline of 10 points or more [5]: 16 (45.7) n (%) | OR for rilzabrutinib vs. placebo, UAS7 reduction of 10 points or more [5]: 1.329 | RRD (%) for rilzabrutinib vs. placebo, UAS7 reduction of 10 points or more [5]: 7.0 % | Responder, UAS7 reduction from baseline of 10 points or more [5]: 19 (54.3) n (%) | Non-responder, UAS7 reduction from baseline of 10 points or more [6]: 21 (55.3) n (%) | OR for rilzabrutinib vs. placebo, UAS7 reduction of 10 points or more [6]: 0.950 | RRD (%) for rilzabrutinib vs. placebo, UAS7 reduction of 10 points or more [6]: −1.3 % | Responder, UAS7 reduction from baseline of 10 points or more [6]: 17 (44.7) n (%) | UAS7 Change from baseline Mean (SD) [7]: −10.65 (9.52) | UAS7 Change from baseline Median [7]: −8.50 | UAS7 Mean (SD) [7]: 20.63 (9.18) | UAS7 Median [7]: 18.63 | UAS7 Percent change from baseline Mean (SD) [7]: −32.46 (26.63) % | UAS7 Percent change from baseline Median [7]: −27.86% | UAS7 Change from baseline Mean (SD) [8]: −22.00 (NC) | UAS7 Change from baseline Median [8]: −22.00 | UAS7 Mean (SD) [8]: 19.00 (NC) | UAS7 Median [8]: 19.00 | UAS7 Percent change from baseline Mean (SD) [8]: −53.66 (NC) % | UAS7 Percent change from baseline Median [8]: −53.66% | Non-responder, UAS7 reduction from baseline of 10 points or more [9]: 21 (56.8) n (%) | OR for rilzabrutinib vs. placebo, UAS7 reduction of 10 points or more [9]: 0.877 | RRD (%) for rilzabrutinib vs. placebo, UAS7 reduction of 10 points or more [9]: −3.4 % | Responder, UAS7 reduction from baseline of 10 points or more [9]: 16 (43.2) n (%) | Non-responder, UAS7 reduction from baseline of 10 points or more [10]: 12 (29.3) n (%) | OR for rilzabrutinib vs. placebo, UAS7 reduction of 10 points or more [10]: 2.703 | RRD (%) for rilzabrutinib vs. placebo, UAS7 reduction of 10 points or more [10]: 23.5 % | Responder, UAS7 reduction from baseline of 10 points or more [10]: 29 (70.7) n (%) | UAS7 Change from baseline Mean (SD) [11]: −16.74 (11.67) | UAS7 Change from baseline Median [11]: −15.17 | UAS7 Mean (SD) [11]: 13.41 (10.60) | UAS7 Median [11]: 14.00 | UAS7 Percent change from baseline Mean (SD) [11]: −54.42 (33.80) % | UAS7 Percent change from baseline Median [11]: −50.00% | UAS7 Change from baseline Mean (SD) [12]: −24.11 (14.81) | UAS7 Change from baseline Median [12]: −20.50 | UAS7 Mean (SD) [12]: 8.92 (10.94) | UAS7 Median [12]: 5.50 | UAS7 Percent change from baseline Mean (SD) [12]: −70.71 (27.72) % | UAS7 Percent change from baseline Median [12]: −73.90% | Non-responder, UAS7 reduction from baseline of 10 points or more [13]: 11 (31.4) n (%) | OR for rilzabrutinib vs. placebo, UAS7 reduction of 10 points or more [13]: 2.512 | RRD (%) for rilzabrutinib vs. placebo, UAS7 reduction of 10 points or more [13]: 22.4 % | Responder, UAS7 reduction from baseline of 10 points or more [13]: 24 (68.6) n (%) | Non-responder, UAS7 reduction from baseline of 10 points or more (Week 6, 400 mg BID, ITT population): 20 (48.8) n (%)
